Legend:
sepsis model mice (CLP) = assay: CLP sepsis model mice: survival and live bacterial count in blood; type: in vivo, BALB/c mice; conditions: 24 hour blood samples from septic mice; 25 mg/kg
Procedure: Sepsis model: twenty BALB/c mice (Jackson Labs; 6-8 weeks) were made septic by CLP. Briefly, mice were anesthetized isoflurane (5% induction and 2% maintenance), and subjected to laparotomy. The cecum was exteriorized and ligated distal to the ileocecal valve without causing intestinal obstruction. The cecum was then punctured twice with either a 21 gauge needle, and stool was gently extruded. Lastly, the abdomen was closed 1 mL of saline was injected.

[1] = in vivo; cited from earlier work
[2] = test system: human colorectal HT-29 cancer cells; conditions: 5 mg/kg, twice a week for three weeks
Description: In this example, human colorectal HT-29 cancer cells will be xenografted to mice.

[3] = test system: human HT-29 colorectal cancer cells; assay: xenografted HT-29 colorectal tumor in mice, tumor volume; type: in vivo; conditions: 12 mg/kg, one time
Procedure: FIG. 5 depicts activity of control, oxaliplatin (L-OHP, 12 mg/kg), and whole blood mixed with oxaliplatin (Blood-mix-L-OHP, either 12 mg/kg or 24 mg/kg) in treating xenografted HT-29 colorectal tumor, as measured by tumor volume over time (0-40 days) after each treatment.

[4] = test system: human lung cancer cells A549; assay: xenografted A549 lung tumor in mice, tumor volume; type: in vivo; conditions: 50 mg/kg, twice in one week
Procedure: FIG. 1 depicts activity of control, carboplatin (Carbo, 50 mg/kg), and whole blood mixed with carboplatin (Blood-mix-Carbo, either 50 mg/kg or 100 mg/kg) in treating xenografted A549 lung tumor, as measured by tumor volume after each treatment.
In this example, human lung cancer cells A549 were xenografted to mice.

[5] = test system: human breast carcinoma cells MCF7; assay: orthotopically implanted MCF7 human breast carcinoma in mice, tumor volume; type: in vivo, athymic mice (nu/nu); conditions: either 10 mg/kg or 30 mg/kg, twice per week
Procedure: (§1) 6-week-old-female athymic mice (nu/nu) were implanted orthotopically with 1×10^7 cells/mL human breast carcinoma cells MCF7 or MCF/Taxol (Taxol resistance line) into their mammary fat pad. […] The treatments started when tumors were 100 mm^3. The paclitaxel blood mixes were prepared by incubating whole blood with paclitaxel and an anticoagulant (CPD) for 30 minutes.

[6] = test system: MCF7/Taxol (Taxol resistance line); assay: orthotopically implanted MCF7/Taxol human breast carcinoma in mice, tumor volume; type: in vivo, athymic mice (nu/nu); conditions: either 10 mg/kg or 30 mg/kg, twice per week
Procedure: as §1

SMILES: C[C@@H](O)[C@H]1C(=O)N2C(C(=O)O)=C(SCCN=CN)C[C@H]12 [imipenem]
- live bacterial count (sepsis model mice (CLP)): 7.4±0.45 log CFU/mL

SMILES: CC[C@@]1(O)C(=O)OCc2c1cc1n(c2=O)Cc2cc3c(CN(C)C)c(O)ccc3nc2-1 [Topotecan]
- elimination time of the drug [1]: 2 to 3 h

SMILES: COc1cccc2c1C(=O)c1c(O)c3c(c(O)c1C2=O)C[C@@](O)(C(=O)CO)C[C@@H]3O[C@H]1C[C@H](N)[C@H](O)[C@H](C)O1 [doxorubicin]
- tumor volume compared to control [2]: tumor volume is reduced

SMILES: O=P1(N(CCCl)CCCl)NCCCO1 (stereo not drawn) [Cyclophosphamide]
- elimination time of the drug [1]: 3 to 12 h

SMILES: O=C1[O][Pt]2([NH][C@@H]3CCCC[C@H]3[NH]2)[O]C1=O [oxaliplatin]
- tumor volume compared to control [3]: tumor volume was reduced

SMILES: O=P1(NCCCl)OCCCN1CCCl (stereo not drawn) [ifosfamide]
- elimination time of the drug [1]: 7 to 15 h

SMILES: N.N.O=C([O-])C1(C(=O)[O-])CCC1.[Pt+2] [carboplatin]
- tumor volume compared to control [4]: tumor volume was reduced

SMILES: CC(=O)O[C@H]1C(=O)[C@@]2(C)[C@H]([C@H](OC(=O)c3ccccc3)[C@]3(O)C[C@H](OC(=O)[C@H](O)[C@@H](NC(=O)c4ccccc4)c4ccccc4)C(C)=C1C3(C)C)[C@]1(OC(C)=O)CO[C@@H]1C[C@@H]2O [paclitaxel]
- tumor volume compared to control [5]: tumor volume was reduced
- tumor volume compared to control [6]: tumor volume was reduced
